The results in this text go back to patent publication EP0173664A2, “Biologically active benzimidazole compounds and process for their preparation” (priority 1984, dated 1986).

This test concerns isolated rabbit gastric glands. The test can be described thus: Inhibiting effect in vitro on acid secretion in isolated rabbit gastric glands (14C-aminopyrine accumulation, histamine-stimulated). The class given is cell-based. Conditions: Oryctolagus cuniculus, 1 h; negative logarithm of concentration (in M) giving 50% inhibition of aminopyrine accumulation; glands incubated 60 min with 5x10^-5M histamine; read-out: Biological effect in glands pIC50 (converted). The protocol: Isolated rabbit gastric glands were prepared as described by Berglindh et al., Acta physiol. scand. 1976. 96. 150-159. This method involves vascular perfusion of the rabbit stomach via the gastric arteries, scraping and scissor mincing of the separated gastric mucosa and collagenase (0.1%, Type I, Sigma Chemicals, St. Louis, MO. USA) digestion at 37°C for 60-90 min. The glands are then harvested and filtered through nylon cloth to remove coarse fragments. The glands are thereafter incubated at 37°C in a medium containing NaCl 132.4 mM, KC1 5.4 mM, […], NaH2P04 1.0 mM, MgS04 1.2 mM, CaCl2 1.0 mM, glucose 10 mM, and 1 mg/ml rabbit albumine, pH 7.4.
The acid secretion in the isolated gland preparation was recorded by measuring the uptake of ^14C-labelled aminopyrine into the glands as described by Berglindh et al., Acta physiol. scand. 1976. 97. 401-414. Accumulation of aminopyrine in the glands indicates gastric acid secretion within the glands. The standard medium contained 10^-6M ^14C-aminopyrine (Amersham, Great Britain). After the incubation period, the glands were centrifuged, the supernatant was removed and the glands dried, weighed and dissolved in Soluene -350 (Packard, IU. USA). Samples of the supernatant and glands were separately counted in a scintillation counter. The accumulation of ^14 C-labelled aminopyrine in the glands was calculated as detailed by Berglindh et al., Acta physiol. scand. 1976. 97. 403.
Glands were incubated for 60 min. in the presence of 5x10^-5M histamine and the test compound to be studied. The free base of the test compound was dissolved in methanol. The final concentration of methanol was 1% in the incubation medium, having no influence on the aminopyrine accumulation ratio. For each test compound a complete dose-response curve was generated by testing doses in duplicate in the concentration range 10^-7M to 10-^4M.
Consider `CCc1cnc(C[S+]([O-])c2nc3cc(C)c(C)cc3[nH]2)cc1Oc1ccccc1` (centres unmarked) [Example 1, 5,6-dimethyl-2-[[(4-phenoxy-5--ethyl-2-pyridinyl)methyl]sulfinyl]-1H-benzimidazole], for which the IC50 was 1000 nM.

Turning to `COc1ccc2[nH]c([S+]([O-])Cc3cc(Oc4ccc(C)cc4)ccn3)nc2c1` (centres unmarked) [Example 3, 5-methoxy-2-[[[4-(4-methylphenoxy)--2-pyridinyl]methyl]sulfinyl]-1H-benzimidazole], the IC50 is 794 nM.

Take `CCc1cnc(C[S+]([O-])c2nc3cc(OC)ccc3[nH]2)cc1Oc1ccccc1` (centres unmarked) [Example 6]: the IC50 is 316 nM.

With `COc1ccc2[nH]c([S+]([O-])Cc3cc(-c4ccccc4)ccn3)nc2c1` (centres unmarked) [Example 8], the IC50 is 2510 nM.

In the case of `COc1ccc2[nH]c([S+]([O-])Cc3cc(Oc4ccccc4)ccn3)nc2c1` (centres unmarked) [Example 10], the IC50 is 1260 nM.

Consider `Cc1cc2nc([S+]([O-])Cc3cc(Oc4ccccc4)ccn3)[nH]c2cc1C` (centres unmarked) [Example 12], for which the IC50 was 316 nM.

Take `COc1ccc2[nH]c([S+]([O-])Cc3nccc(Oc4ccc(C)cc4)c3C)nc2c1` (centres unmarked) [Example 16]: the IC50 was 631 nM.

Turning to `COc1ccc2[nH]c([S+]([O-])Cc3cc(Oc4ccc(C)cc4)c(C)cn3)nc2c1` (centres unmarked) [Example 18], the IC50 is 631 nM.

As for `COc1ccc2[nH]c([S+]([O-])Cc3cc(OCc4ccccc4)c(C)cn3)nc2c1` (centres unmarked) [Example 22], the IC50 was 79.4 nM.

Take `Cc1cc2nc([S+]([O-])Cc3cc(-c4ccccc4)ccn3)[nH]c2cc1C` (centres unmarked) [Example 24]: the IC50 is 7940 nM.

For `CCc1cnc(C[S+]([O-])c2nc3cc(OC)ccc3[nH]2)cc1OCc1ccccc1` (centres unmarked) [Example 26], the IC50 is 794 nM.
